Laboratory results taken from ChEMBL document CHEMBL1144455, “A small molecule-kinase interaction map for clinical kinase inhibitors” (Nat Biotechnol, 2005).

Columns and labels:
[1] = biological target: T1, Serine/threonine-protein kinase 4 (Homo sapiens, UniProt Q13043)
T1 sequence (Q13043 whole entry): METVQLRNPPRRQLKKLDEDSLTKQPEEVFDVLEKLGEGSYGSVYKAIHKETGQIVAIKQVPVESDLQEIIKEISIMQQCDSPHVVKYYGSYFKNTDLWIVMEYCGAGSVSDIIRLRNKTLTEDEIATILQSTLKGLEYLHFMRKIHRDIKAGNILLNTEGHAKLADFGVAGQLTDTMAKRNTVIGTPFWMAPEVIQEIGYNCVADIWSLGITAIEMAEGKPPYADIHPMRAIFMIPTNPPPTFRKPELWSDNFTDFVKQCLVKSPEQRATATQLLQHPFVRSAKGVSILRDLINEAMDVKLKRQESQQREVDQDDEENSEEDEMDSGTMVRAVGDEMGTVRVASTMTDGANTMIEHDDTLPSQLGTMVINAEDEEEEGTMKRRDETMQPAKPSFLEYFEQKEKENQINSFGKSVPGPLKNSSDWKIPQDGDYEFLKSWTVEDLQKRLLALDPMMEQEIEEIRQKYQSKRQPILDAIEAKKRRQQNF

[2] = biological target: T2, Mitogen-activated protein kinase kinase kinase 5 (Homo sapiens, UniProt Q99683)
T2 sequence (Q99683 whole entry): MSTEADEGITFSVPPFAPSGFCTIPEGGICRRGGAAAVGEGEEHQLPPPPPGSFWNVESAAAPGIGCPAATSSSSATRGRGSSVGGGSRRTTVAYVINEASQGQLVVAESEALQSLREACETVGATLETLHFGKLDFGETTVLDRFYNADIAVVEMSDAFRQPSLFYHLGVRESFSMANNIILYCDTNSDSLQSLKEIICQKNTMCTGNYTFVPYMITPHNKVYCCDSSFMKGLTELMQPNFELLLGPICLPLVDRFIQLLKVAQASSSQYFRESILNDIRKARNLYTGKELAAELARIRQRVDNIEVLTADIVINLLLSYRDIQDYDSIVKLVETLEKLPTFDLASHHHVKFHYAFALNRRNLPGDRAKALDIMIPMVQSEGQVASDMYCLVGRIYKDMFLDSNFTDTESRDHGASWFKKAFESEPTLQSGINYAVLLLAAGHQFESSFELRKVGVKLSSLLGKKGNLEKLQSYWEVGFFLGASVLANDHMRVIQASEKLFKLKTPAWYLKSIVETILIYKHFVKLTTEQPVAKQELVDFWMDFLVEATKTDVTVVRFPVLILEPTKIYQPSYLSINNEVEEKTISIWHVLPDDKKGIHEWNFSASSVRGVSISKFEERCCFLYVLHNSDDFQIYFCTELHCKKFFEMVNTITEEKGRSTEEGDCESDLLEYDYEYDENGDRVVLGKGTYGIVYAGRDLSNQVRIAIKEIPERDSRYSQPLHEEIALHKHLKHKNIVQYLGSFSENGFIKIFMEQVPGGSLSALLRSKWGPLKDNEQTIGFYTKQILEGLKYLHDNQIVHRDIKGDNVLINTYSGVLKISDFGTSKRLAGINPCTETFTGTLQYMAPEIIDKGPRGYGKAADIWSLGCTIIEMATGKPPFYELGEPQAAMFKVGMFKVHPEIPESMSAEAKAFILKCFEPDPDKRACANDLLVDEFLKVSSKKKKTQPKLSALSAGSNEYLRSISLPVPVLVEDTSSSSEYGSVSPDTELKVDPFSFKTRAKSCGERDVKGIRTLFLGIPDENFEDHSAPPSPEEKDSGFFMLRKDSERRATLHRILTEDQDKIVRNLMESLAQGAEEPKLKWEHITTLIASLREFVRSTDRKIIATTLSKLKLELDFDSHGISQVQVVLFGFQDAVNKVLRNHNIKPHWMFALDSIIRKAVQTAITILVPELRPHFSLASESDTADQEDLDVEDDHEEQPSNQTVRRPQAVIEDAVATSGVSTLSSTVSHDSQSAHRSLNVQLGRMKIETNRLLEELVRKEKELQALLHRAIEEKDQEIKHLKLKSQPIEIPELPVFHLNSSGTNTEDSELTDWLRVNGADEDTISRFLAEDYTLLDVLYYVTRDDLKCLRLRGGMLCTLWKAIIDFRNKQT

[3] = biological target: Tyrosine-protein kinase Fgr (Homo sapiens, UniProt P09769)
Tyrosine-protein kinase Fgr, sequence (P09769 whole entry, the tested form may be a part): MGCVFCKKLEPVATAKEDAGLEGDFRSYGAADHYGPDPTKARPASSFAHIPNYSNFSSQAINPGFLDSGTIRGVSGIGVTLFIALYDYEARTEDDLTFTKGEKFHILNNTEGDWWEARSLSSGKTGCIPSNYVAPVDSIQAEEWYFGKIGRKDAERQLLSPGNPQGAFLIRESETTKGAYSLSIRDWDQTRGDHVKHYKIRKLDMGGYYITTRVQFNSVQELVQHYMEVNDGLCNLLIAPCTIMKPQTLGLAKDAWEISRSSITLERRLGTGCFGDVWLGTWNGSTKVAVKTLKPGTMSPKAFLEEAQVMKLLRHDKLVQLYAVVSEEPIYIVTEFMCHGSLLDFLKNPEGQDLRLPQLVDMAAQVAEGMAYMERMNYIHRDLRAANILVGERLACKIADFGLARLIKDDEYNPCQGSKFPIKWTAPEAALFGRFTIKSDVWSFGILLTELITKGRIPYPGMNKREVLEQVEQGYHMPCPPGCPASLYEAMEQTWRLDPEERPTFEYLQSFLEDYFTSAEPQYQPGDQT

LIM domain kinase 1 = LIM domain kinase 1 (Homo sapiens, UniProt P53667)
[4] = biological target: Phosphorylase b kinase gamma catalytic chain, skeletal muscle/heart isoform (Homo sapiens, UniProt Q16816)
Phosphorylase b kinase gamma catalytic chain, skeletal muscle/heart isoform, sequence (Q16816 whole entry, canonical isoform): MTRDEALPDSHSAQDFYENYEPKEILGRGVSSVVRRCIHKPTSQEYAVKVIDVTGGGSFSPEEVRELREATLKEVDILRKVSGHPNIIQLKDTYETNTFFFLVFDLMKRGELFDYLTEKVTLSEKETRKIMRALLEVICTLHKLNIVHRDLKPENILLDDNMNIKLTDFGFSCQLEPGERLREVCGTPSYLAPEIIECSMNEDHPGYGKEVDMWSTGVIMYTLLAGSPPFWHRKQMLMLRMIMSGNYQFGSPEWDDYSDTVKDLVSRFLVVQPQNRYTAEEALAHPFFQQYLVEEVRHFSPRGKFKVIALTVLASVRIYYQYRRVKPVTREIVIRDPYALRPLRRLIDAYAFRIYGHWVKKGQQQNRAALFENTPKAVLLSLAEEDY

[5] = biological target: Myosin light chain kinase 2, skeletal/cardiac muscle (Homo sapiens, UniProt Q9H1R3)
[6] = biological target: Calcium/calmodulin-dependent protein kinase kinase 2 (Homo sapiens, UniProt Q96RR4)
Calcium/calmodulin-dependent protein kinase kinase 2, sequence (Q96RR4 whole entry): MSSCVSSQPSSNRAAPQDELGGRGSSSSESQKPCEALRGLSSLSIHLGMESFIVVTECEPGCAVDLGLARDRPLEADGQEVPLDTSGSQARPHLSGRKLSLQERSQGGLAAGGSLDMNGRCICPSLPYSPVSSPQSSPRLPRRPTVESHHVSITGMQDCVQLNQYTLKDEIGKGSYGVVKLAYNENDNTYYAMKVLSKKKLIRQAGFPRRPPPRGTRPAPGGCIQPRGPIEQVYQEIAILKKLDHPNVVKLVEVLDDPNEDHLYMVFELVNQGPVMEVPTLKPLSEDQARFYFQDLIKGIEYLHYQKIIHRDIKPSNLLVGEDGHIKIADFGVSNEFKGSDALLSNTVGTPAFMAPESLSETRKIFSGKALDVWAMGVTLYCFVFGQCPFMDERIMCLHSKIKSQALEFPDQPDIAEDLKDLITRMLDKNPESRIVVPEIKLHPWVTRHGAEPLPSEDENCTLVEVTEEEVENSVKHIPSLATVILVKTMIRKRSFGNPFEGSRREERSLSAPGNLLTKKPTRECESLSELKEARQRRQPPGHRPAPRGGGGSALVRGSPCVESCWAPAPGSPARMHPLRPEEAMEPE

[7] = biological target: Serine/threonine-protein kinase PAK 1 (Homo sapiens, UniProt Q13153)
Serine/threonine-protein kinase PAK 1, sequence (Q13153 whole entry): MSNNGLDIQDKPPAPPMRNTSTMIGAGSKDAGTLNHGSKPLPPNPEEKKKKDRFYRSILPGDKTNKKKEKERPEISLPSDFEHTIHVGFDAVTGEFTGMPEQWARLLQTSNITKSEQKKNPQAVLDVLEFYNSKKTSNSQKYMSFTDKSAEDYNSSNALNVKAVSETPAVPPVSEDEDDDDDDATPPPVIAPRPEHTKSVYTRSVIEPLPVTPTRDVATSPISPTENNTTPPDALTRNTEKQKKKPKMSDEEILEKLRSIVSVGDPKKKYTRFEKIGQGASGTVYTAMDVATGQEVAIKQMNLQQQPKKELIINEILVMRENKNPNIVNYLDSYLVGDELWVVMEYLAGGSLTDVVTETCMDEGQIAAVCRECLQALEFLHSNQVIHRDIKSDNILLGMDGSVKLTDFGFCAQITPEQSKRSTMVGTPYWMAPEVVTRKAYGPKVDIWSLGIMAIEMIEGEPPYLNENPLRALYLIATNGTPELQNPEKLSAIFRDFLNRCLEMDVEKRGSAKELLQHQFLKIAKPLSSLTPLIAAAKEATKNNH

[8] = biological target: Vascular endothelial growth factor receptor 3 (Homo sapiens, UniProt P35916)
Vascular endothelial growth factor receptor 3, sequence (P35916 whole entry): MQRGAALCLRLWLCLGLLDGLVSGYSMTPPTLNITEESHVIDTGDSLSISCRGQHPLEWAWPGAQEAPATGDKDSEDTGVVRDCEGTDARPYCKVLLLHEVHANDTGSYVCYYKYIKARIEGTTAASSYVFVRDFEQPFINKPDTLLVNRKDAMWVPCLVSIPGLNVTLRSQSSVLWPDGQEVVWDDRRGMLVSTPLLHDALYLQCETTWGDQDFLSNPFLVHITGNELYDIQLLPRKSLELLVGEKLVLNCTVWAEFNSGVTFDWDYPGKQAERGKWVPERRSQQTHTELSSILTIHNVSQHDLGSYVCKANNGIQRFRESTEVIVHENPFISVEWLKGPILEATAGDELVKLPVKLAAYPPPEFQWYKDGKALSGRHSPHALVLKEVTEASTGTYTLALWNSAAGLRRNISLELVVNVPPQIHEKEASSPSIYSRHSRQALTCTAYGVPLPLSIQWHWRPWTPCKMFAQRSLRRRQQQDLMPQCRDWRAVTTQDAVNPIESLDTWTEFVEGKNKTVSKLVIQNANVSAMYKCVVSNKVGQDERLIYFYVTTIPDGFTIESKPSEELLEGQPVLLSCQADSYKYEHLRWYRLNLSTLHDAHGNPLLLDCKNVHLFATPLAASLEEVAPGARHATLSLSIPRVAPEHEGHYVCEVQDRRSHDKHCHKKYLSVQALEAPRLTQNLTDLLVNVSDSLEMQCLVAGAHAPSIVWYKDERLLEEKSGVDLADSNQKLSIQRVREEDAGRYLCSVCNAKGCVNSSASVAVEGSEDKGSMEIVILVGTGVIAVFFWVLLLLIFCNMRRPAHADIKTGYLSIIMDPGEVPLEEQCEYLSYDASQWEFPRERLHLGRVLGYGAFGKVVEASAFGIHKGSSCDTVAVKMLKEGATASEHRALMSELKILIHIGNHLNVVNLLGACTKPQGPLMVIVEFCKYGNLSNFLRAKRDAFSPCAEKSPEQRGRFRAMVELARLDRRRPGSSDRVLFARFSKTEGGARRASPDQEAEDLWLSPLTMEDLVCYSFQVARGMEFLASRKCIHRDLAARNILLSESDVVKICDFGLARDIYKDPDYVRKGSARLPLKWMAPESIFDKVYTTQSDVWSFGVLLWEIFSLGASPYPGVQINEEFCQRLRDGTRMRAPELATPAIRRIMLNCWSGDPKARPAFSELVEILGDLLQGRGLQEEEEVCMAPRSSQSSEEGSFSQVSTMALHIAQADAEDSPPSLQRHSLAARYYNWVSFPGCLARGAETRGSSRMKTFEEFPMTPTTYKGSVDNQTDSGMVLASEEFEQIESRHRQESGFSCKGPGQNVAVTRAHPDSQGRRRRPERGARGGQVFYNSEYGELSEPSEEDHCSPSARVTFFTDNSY

Angiopoietin-1 receptor = Angiopoietin-1 receptor (Homo sapiens, UniProt Q02763)
Angiopoietin-1 receptor, sequence (Q02763 whole entry): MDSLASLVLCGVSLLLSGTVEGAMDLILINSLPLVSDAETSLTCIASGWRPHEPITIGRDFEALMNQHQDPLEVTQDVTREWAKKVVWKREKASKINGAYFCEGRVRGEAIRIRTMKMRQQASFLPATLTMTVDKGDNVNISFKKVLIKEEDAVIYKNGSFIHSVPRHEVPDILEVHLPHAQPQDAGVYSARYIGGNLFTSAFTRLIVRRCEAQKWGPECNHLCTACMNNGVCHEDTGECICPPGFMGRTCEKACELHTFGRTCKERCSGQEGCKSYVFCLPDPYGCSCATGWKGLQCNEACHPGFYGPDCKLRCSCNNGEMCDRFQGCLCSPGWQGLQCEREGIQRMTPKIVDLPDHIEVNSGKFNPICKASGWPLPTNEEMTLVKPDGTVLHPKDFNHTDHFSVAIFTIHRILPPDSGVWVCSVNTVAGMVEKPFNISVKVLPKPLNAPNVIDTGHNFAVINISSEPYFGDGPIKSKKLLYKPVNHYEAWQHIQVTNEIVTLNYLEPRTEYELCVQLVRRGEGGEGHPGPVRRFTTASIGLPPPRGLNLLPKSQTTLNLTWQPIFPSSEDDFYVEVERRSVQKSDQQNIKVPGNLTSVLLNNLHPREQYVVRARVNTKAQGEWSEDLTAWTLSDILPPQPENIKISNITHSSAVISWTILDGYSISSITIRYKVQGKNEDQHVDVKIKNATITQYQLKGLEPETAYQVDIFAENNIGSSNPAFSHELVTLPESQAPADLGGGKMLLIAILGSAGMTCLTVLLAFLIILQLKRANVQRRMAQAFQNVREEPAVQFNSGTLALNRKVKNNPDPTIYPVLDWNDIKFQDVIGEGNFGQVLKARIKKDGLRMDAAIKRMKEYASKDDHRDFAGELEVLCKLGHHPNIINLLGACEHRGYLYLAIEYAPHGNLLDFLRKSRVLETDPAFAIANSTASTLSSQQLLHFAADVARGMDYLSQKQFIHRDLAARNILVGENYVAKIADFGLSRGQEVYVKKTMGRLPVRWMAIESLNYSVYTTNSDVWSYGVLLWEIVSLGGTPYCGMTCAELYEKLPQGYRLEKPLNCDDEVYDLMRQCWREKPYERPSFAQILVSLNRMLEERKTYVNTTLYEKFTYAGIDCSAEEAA

[9] = biological target: Calcium/calmodulin-dependent protein kinase type II subunit alpha (Homo sapiens, UniProt Q9UQM7)
Calcium/calmodulin-dependent protein kinase type II subunit alpha, sequence (Q9UQM7 whole entry): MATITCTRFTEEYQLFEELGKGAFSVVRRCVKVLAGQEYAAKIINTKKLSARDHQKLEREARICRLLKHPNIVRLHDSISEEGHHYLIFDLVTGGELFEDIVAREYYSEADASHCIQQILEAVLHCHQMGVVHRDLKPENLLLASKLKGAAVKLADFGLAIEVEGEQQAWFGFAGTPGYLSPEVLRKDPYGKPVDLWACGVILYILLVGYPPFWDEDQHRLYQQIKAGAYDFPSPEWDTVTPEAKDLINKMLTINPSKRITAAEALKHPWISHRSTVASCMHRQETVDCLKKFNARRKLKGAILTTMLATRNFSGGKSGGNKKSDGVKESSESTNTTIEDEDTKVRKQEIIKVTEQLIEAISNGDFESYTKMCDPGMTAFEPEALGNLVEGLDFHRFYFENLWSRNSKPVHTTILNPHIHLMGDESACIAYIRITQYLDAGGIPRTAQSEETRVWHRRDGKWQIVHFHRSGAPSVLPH

[10] = biological target: Receptor tyrosine-protein kinase erbB-2 (Homo sapiens, UniProt P04626)
[11] = biological target: Fibroblast growth factor receptor 2 (Homo sapiens, UniProt P21802)
[12] = biological target: Proto-oncogene tyrosine-protein kinase Src (Homo sapiens, UniProt P12931)

| SMILES | Kd [1] | Kd [2] | Kd [3] | Kd (LIM domain kinase 1) | Kd [4] | Kd [5] | Kd [6] | Kd [7] | Kd [8] | Kd (Angiopoietin-1 receptor) | Kd [9] | Kd [10] | Kd [11] | Kd [12] | Kd ([12]; read-out: Kd) |
| --- | --- | --- | --- | --- | --- | --- | --- | --- | --- | --- | --- | --- | --- | --- | --- |
| C#Cc1cccc(Nc2ncnc3cc(OCCOC)c(OCCOC)cc23)c1 [ERLOTINIB] | Not Active | Not Active | Not Active | Not Active | Not Active | Not Active | Not Active | Not Active | Not Active | Not Active | Not Active |  |  |  |  |
| COc1cc2c(N3CCN(C(=O)Nc4ccc(OC(C)C)cc4)CC3)ncnc2cc1OCCCN1CCCCC1 [TANDUTINIB] | Not Active | Not Active | Not Active | Not Active | Not Active | Not Active | Not Active | Not Active | Not Active | Not Active | Not Active | Not Active | Not Active | Not Active |  |
| O=c1ncn2nc(Sc3ccc(F)cc3F)ccc2c1-c1c(Cl)cccc1Cl [NEFLAMAPIMOD] | Not Active | Not Active |  | Not Active | Not Active | Not Active | Not Active | Not Active | Not Active | Not Active | Not Active | Not Active | Not Active |  |  |
| C[S+]([O-])c1ccc(-c2nc(-c3ccc(F)cc3)c(-c3ccncc3)[nH]2)cc1 (stereo unspecified) [SB-203580] | Not Active | Not Active | Not Active | Not Active | Not Active | Not Active | Not Active | Not Active | Not Active | Not Active | Not Active | Not Active | Not Active | Not Active |  |
| Cc1ccc(NC(=O)c2ccc(CN3CCN(C)CC3)cc2)cc1Nc1nccc(-c2cccnc2)n1 [IMATINIB] | Not Active | Not Active | Not Active | Not Active | Not Active | Not Active | Not Active | Not Active | Not Active | Not Active | Not Active | Not Active | Not Active |  |  |
| CC[C@H](CO)Nc1nc(NCc2ccccc2)c2ncn(C(C)C)c2n1 [SELICICLIB] | Not Active | Not Active | Not Active | Not Active | Not Active | Not Active | Not Active | Not Active | Not Active | Not Active | Not Active | Not Active | Not Active | Not Active |  |
| Oc1ccc(-c2nc(-c3ccc(F)cc3)c(-c3ccncc3)[nH]2)cc1 [SB-202190] | Not Active | Not Active | Not Active | Not Active | Not Active | Not Active | Not Active | Not Active | Not Active | Not Active | Not Active | Not Active | Not Active | Not Active |  |
| CCOc1cc2ncc(C#N)c(Nc3ccc(F)c(Cl)c3)c2cc1NC(=O)/C=C/CN(C)C [PELITINIB] |  | Not Active | Not Active | Not Active |  |  |  |  | Not Active |  | Not Active |  | Not Active |  | 120 nM |
| Oc1c2ccccc2c2c3c(cccc13)N=N2 [SP-600125] |  | Not Active | Not Active | Not Active | Not Active | Not Active |  | Not Active | Not Active | Not Active | Not Active | Not Active | Not Active | Not Active |  |
